According to patent publication US12503436B2, “Compounds and compositions for treating conditions associated with STING activity” (NOVARTIS PHARMA AG, priority 2021, dated 2025):

Biological target: STING (Homo sapiens, UniProt Q86WV6, G230A/H232R/R293Q/R71H)
Experiment: STING reporter assay in THP1-Dual KO-IFNAR2 cells (2′3′cGAMP stimulation, luciferase reporter)
Type: cell-based
Conditions: 15 μM 2′3′cGAMP stimulation, 24 h, read-out: Pharmaron, THP1_IFNAR2 STING 24 h Luci Normalized: GeoMean EC50
Procedure: STING pathway activation by the compounds described herein was measured using THP1-Dual™ cells (KO-IFNAR2).
THP1-Dual™ KO-IFNAR2 Cells (obtained from InvivoGen) were maintained in RPMI, 10% FCS, 5 ml P/S, 2 mM L-glut, 10 mM Hepes, and 1 mM sodium pyruvate. Compounds were spotted in empty 384 well tissue culture plates (Greiner 781182) by Echo for a final concentration of 0.0017-100 μM. Cells were plated into the TC plates at 40 μL per well, 2×10E6 cells/mL. For activation with STING ligand, 2′3′cGAMP (MW 718.38, obtained from Invivogen), was prepared in Optimem media.
The following solutions were prepared for each 1×384 plate: • Solution A: 2 mL Optimem with one of the following stimuli: • 60 μL of 10 mM 2′3′cGAMP→150 μM stock • Solution B: 2 mL Optimem with 60 μL Lipofectamine 2000→Incubate 5 min at RT
2 mL of solution A and 2 ml Solution B was mixed and incubated for 20 min at room temperature (RT). 20 μL of transfection solution (A+B) was added on top of the plated cells, with a final 2′3′cGAMP concentration of 15 μM. The plates were then centrifuged immediately at 340 g for 1 minute, after which they were incubated at 37° C., 5% CO2, >98% humidity for 24 h. Luciferase reporter activity was then measured. EC50 values were calculated by using standard methods known in the art.
Luciferase reporter assay: 10 μL of supernatant from the assay was transferred to white 384-plate with flat bottom and squared wells. One pouch of QUANTI-Luc™ Plus was dissolved in 25 mL of water. 100 μL of QLC Stabilizer per 25 mL of QUANTI-Luc™ Plus solution was added. 50 μL of QUANTI-Luc™ Plus/QLC solution per well was then added. Luminescence was measured on a Platereader (e.g., Spectramax I3X (Molecular Devices GF3637001)).
Luciferase reporter activity was then measured. EC50 values were calculated by using standard methods known in the art.

Sequence of STING (Q86WV6 whole entry R71H/G230A/H232R/R293Q): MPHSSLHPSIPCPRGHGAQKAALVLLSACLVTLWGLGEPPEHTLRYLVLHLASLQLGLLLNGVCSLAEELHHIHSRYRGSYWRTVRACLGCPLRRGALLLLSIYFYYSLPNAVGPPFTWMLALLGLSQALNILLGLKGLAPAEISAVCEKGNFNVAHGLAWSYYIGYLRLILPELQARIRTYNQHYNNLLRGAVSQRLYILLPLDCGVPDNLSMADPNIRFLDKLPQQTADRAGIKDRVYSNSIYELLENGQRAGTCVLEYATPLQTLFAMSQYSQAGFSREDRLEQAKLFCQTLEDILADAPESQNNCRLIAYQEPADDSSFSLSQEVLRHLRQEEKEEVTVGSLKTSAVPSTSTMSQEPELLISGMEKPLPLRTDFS

Row | Molecule | EC50 [µM]
1 | O=C(Nc1c[nH]c2ccc(O[C@H]3C[C@@H](c4ccc(C(F)(F)F)cc4)C3)cc12)C1CNC1 [Compound 537, N-(5-(cis-3-(4-(trifluoromethyl)phenyl)cyclobutoxy)-1H-indol-3-yl)azetidine-3-carboxamide] | 5 to 100
2 | O=C(Nc1c[nH]c2ccc(O[C@H]3C[C@@H](c4ccc(C(F)(F)F)cc4)C3)cc12)C1CN(CC(F)(F)F)C1 [Compound 243, 1-(2,2,2-trifluoroethyl)-N-(5-(cis-3-(4-(trifluoromethyl)phenyl)cyclobutoxy)-1H-indol-3-yl)azetidine-3-carboxamide] | 0.04 to 0.2
3 | CC(=O)Nc1c[nH]c2ccc(COCC3CCN(CC(F)(F)F)CC3)cc12 [Compound 268, N-(5-(((1-(2,2,2-trifluoroethyl)piperidin-4-yl)methoxy)methyl)-1H-indol-3-yl)acetamide] | 1 to 5
4 | [2H][13C]([2H])([2H])C(=O)Nc1c[nH]c2ccc(CCOc3ccc(C(F)(F)F)cc3)cc12 [Compound 545, N-(5-(2-(4-(trifluoromethyl)phenoxy)ethyl)-1H-indol-3-yl)acetamide-2-13C-2,2,2-d3] | 0.04 to 0.2
5 | O=C(Nc1c[nH]c2ccc(O[C@H]3C[C@@H](c4ccc(C(F)(F)F)nc4)C3)cc12)[C@H]1C[C@H](CO)C1 [Compound 551, trans-3-(hydroxymethyl)-N-(5-(cis-3-(6-(trifluoromethyl)pyridin-3-yl)cyclobutoxy)-1H-indol-3-yl)cyclobutane-1-carboxamide] | 0.2 to 1
6 | CC(=O)Nc1c[nH]c2ccc(CCOc3ccc(C4(C)CCN(CC(F)(F)F)CC4)cc3)cc12 [Compound 198, N-(5-(2-(4-(4-methyl-1-(2,2,2-trifluoroethyl)piperidin-4-yl)phenoxy)ethyl)-1H-indol-3-yl)acetamide] | 0.2 to 1
7 | CC(=O)Nc1c[nH]c2ccc(O[C@H]3C[C@@H](c4ccc(C(F)(F)F)nc4)C3)cc12 [Compound 455, N-(5-(cis-3-(6-(trifluoromethyl)pyridin-3-yl)cyclobutoxy)-1H-indol-3-yl)acetamide] | 0.2 to 1
8 | CC1(C(=O)Nc2c[nH]c3ccc(O[C@H]4C[C@@H](c5ccc(C(F)(F)F)cc5)C4)cc23)COC1 [Compound 378, 3-methyl-N-(5-(cis-3-(4-(trifluoromethyl)phenyl)cyclobutoxy)-1H-indol-3-yl)oxetane-3-carboxamide] | 0.2 to 1
9 | CC(=O)Nc1c[nH]c2ccc(OCCc3ccc(C(F)(F)F)cc3)nc12 [Compound 248, N-(5-(4-(trifluoromethyl)phenethoxy)-1H-pyrrolo[3,2-b]pyridin-3-yl)acetamide] | 1 to 5
10 | C[C@H]1C[C@H](C(=O)Nc2c[nH]c3ccc(O[C@H]4C[C@@H](c5ccc(C(F)(F)F)cc5)C4)cc23)C1 [Compound 334, trans-3-methyl-N-(5-(cis-3-(4-(trifluoromethyl)phenyl)cyclobutoxy)-1H-indol-3-yl)cyclobutane-1-carboxamide] | 0.04 to 0.2
11 | CC(C)(C)CC(=O)Nc1c[nH]c2ccc(CCOc3ccc(C(F)(F)F)cc3)cc12 [Compound 591, 3,3-dimethyl-N-(5-(2-(4-(trifluoromethyl)phenoxy)ethyl)-1H-indol-3-yl)butanamide] | 0.2 to 1
12 | CC(=O)Nc1c[nH]c2ccc(CCOc3ccc(C(F)(F)F)nc3)cc12 [Compound 232, N-(5-(2-((6-(trifluoromethyl)pyridin-3-yl)oxy)ethyl)-1H-indol-3-yl)acetamide] | 1 to 5
13 | CC(=O)Nc1c[nH]c2ccc(OCC3CCC(C(F)(F)F)CC3)cc12 (stereo not shown) [Compound 472, N-(5-((4-(trifluoromethyl)cyclohexyl)methoxy)-1H-indol-3-yl)acetamide] | 0.2 to 1
14 | CC1(C(=O)Nc2c[nH]c3ccc(O[C@H]4C[C@H](c5ccc(C(F)(F)F)cc5)C4)cc23)CN(CC(F)F)C1 [Compound 483, 1-(2,2-difluoroethyl)-3-methyl-N-(5-(trans-3-(4-(trifluoromethyl)phenyl)cyclobutoxy)-1H-indol-3-yl)azetidine-3-carboxamide] | 0.04 to 0.2
15 | O=C(Nc1c[nH]c2ccc(CCOc3ccc(C(F)(F)F)cc3)cc12)C1CC(F)(F)C1 [Compound 388, 3,3-difluoro-N-(5-(2-(4-(trifluoromethyl)phenoxy)ethyl)-1H-indol-3-yl)cyclobutane-1-carboxamide] | 0.2 to 1

The next lines start with the values.

Row | EC50 [µM] | Molecule
16 | 0.2 to 1 | C[C@]1(C(=O)Nc2c[nH]c3ccc(OCC[C@@H]4C[C@@H]5CN(CC(F)(F)F)C[C@@H]5C4)cc23)CC[C@H](O)CC1 [Compound 504, (1r,4R)-4-hydroxy-1-methyl-N-(5-(2-((3aR,5r,6aS)-2-(2,2,2-trifluoroethyl)octahydrocyclopenta[c]pyrrol-5-yl)ethoxy)-1H-indol-3-yl)cyclohexane-1-carboxamide]
17 | 1 to 5 | CC(=O)Nc1c[nH]c2c(F)cc(CCOc3ccc(C(F)(F)F)cc3)cc12 [Compound 270, N-(7-fluoro-5-(2-(4-(trifluoromethyl)phenoxy)ethyl)-1H-indol-3-yl)acetamide]
18 | 0.04 to 0.2 | COC1CC(C(=O)Nc2c[nH]c3ccc(OCCc4ccc(C(F)(F)F)cc4)cc23)C1 (stereo not shown) [Compound 234, 3-methoxy-N-(5-(4-(trifluoromethyl)phenethoxy)-1H-indol-3-yl)cyclobutane-1-carboxamide]
19 | 0.04 to 0.2 | N#C[C@H]1C[C@@H]1C(=O)Nc1c[nH]c2ccc(CCOc3ccc(C(F)(F)F)cc3)cc12 [Compound 391, (1S,2S)-2-cyano-N-(5-(2-(4-(trifluoromethyl)phenoxy)ethyl)-1H-indol-3-yl)cyclopropane-1-carboxamide]
20 | 0.2 to 1 | CC(=O)Nc1c[nH]c2ccc(OCCC3CCN(c4ccc(C(F)(F)F)cn4)CC3)cc12 [Compound 257, N-(5-(2-(1-(5-(trifluoromethyl)pyridin-2-yl)piperidin-4-yl)ethoxy)-1H-indol-3-yl)acetamide]
21 | 0.2 to 1 | CC(=O)Nc1c[nH]c2ccc(CCOc3ccc(C(F)(F)F)cc3Br)cc12 [Compound 544, N-(5-(2-(2-bromo-4-(trifluoromethyl)phenoxy)ethyl)-1H-indol-3-yl)acetamide]
22 | 0.2 to 1 | COCCN1CC(C(=O)Nc2c[nH]c3ccc(OCCc4ccc(C(F)(F)F)cc4)cc23)C1 [Compound 298, 1-(2-methoxyethyl)-N-(5-(4-(trifluoromethyl)phenethoxy)-1H-indol-3-yl)azetidine-3-carboxamide]
23 | 0.04 to 0.2 | C[C@H]1C[C@@H]1C(=O)Nc1c[nH]c2ccc(OCCc3ccc(C(F)(F)F)cc3)cc12 [Compound 206, (1S,2S)-2-methyl-N-(5-(4-(trifluoromethyl)phenethoxy)-1H-indol-3-yl)cyclopropane-1-carboxamide]
24 | 0.2 to 1 | 3,3-dimethyl-N-(5-(2-((3aR,5r,6aS)-2-(2,2,2-trifluoroethyl)octahydrocyclopenta[c]pyrrol-5-yl)ethoxy)-1H-indol-3-yl)butanamide [Compound 339]
25 | 0.2 to 1 | O=C(Nc1c[nH]c2ccc(OCc3ccc(C(F)(F)F)cc3)cc12)C1CCOCC1 [Compound 156, N-(5-{[4-(trifluoromethyl)phenyl]methoxy}-1H-indol-3-yl)oxane-4-carboxamide]
26 | 0.2 to 1 | O=C(Nc1c[nH]c2ccc(CCOc3ccc(C(F)(F)F)nc3)cc12)C1CC1 [Compound 167, N-(5-(2-((6-(trifluoromethyl)pyridin-3-yl)oxy)ethyl)-1H-indol-3-yl)cyclopropanecarboxamide]
27 | 0.2 to 1 | O=C(Nc1c[nH]c2ccc(OCc3ccc(C(F)(F)F)cc3)cc12)C1CC(Cl)C1 (stereo not shown) [Compound 322, 3-chloro-N-(5-((4-(trifluoromethyl)benzyl)oxy)-1H-indol-3-yl)cyclobutane-1-carboxamide]
28 | 0.2 to 1 | CC(=O)Nc1c[nH]c2ccc(OC3CCN(c4ccc(C(F)(F)F)cc4)C3)cc12 (stereo not shown) [Compound 494, N-(5-((1-(4-(trifluoromethyl)phenyl)pyrrolidin-3-yl)oxy)-1H-indol-3-yl)acetamide]
29 | 1 to 5 | CC(CCc1ccc(C(F)(F)F)cc1)c1ccc2[nH]cc(NC(=O)C3CCC3)c2c1 (stereo not shown) [Compound 131, N-(5-(4-(4-(trifluoromethyl)phenyl)butan-2-yl)-1H-indol-3-yl)cyclobutanecarboxamide]
30 | 1 to 5 | CC(=O)Nc1c[nH]c2ccc(C(C)C[C@@H]3C[C@@H]4CN(CC(F)(F)F)C[C@@H]4C3)cc12 (stereo partly drawn) [Compound 538, N-(5-(1-((3aR,5r,6aS)-2-(2,2,2-trifluoroethyl)octahydrocyclopenta[c]pyrrol-5-yl)propan-2-yl)-1H-indol-3-yl)acetamide]
31 | 0.2 to 1 | COC1CC(C(=O)Nc2c[nH]c3ccc(OCC[C@@H]4C[C@@H]5CN(CC(F)(F)F)C[C@@H]5C4)cc23)C1 (stereo partly drawn) [Compound 345, 3-methoxy-N-(5-(2-((3aR,5r,6aS)-2-(2,2,2-trifluoroethyl)octahydrocyclopenta[c]pyrrol-5-yl)ethoxy)-1H-indol-3-yl)cyclobutane-1-carboxamide]
